What was measured:
[1] = tested on: efflux transporter P-gp; conditions: cited from earlier work
[2] = tested on: HCC; conditions: cited from earlier work
[3] = tested on: portal vein tumor thrombosis; assay: Retrospective review: PVTT recanalization in HCC patients treated with sorafenib plus conventional RT or SBRT; assay type: in vivo, human
Experimental: The need for informed consent was waived by the Institutional Review Board of the Far Eastern Memorial Hospital (FEMH-IRB-108025-E) and retrospective data were collected after receiving approval from the Institutional Review Board of the Far Eastern Memorial Hospital (FEMH-IRB-108025-E). All research was performed in accordance with relevant guidelines and regulations. All tumors were staged according to the American Joint Committee on Cancer (AJCC) Cancer Staging Manual, 7th edition. A total of 90 HCC patients with PVTT were identified. […] The patients who were treated with a radiation fraction size of <5 Gy and those treated with ≥5 Gy were grouped as the conventional and the SBRT group, respectively.

[4] = Plasma pharmacokinetics of sorafenib with RT, with or without CsA pretreatment, in freely moving rats; assay type: in vivo, Sprague-Dawley rats; conditions: for Cmax / Tmax / AUC(0-t): Sprague-Dawley, rat, plasma, 40 mg/kg
Experimental: A freely moving rat model was designed for the current study[21] (Fig. 1A). Experimental rats were anesthetized with 1 g/mL urethane and 0.1 g/mL α-chloralose (1 mL/kg by intraperitoneal [i.p.] injection), and polyethylene tubes were then implanted in the right jugular vein for intravenous (i.v.) fluid administration. The right jugular vein was catheterized for blood sampling. The catheter traversed the subcutaneous tissue and was fixed in the dorsal neck region. After surgery, the rats were placed in an experimental cage and allowed to recover for 1 day. During the recovery period, the rats were kept warm under a light. Then, the rats were anesthetized and immobilized on a board while undergoing CT for localization of the whole liver (conventional technique, Fig. 1B) or a central area of 1.5 × 1.5 cm (SBRT technique, Fig. 1C).
The rats were randomly divided into five groups of six rats per group.
The rats were pretreated with CsA (20 mg/kg, i.p.). […] Blood samples were obtained according to a preset schedule.
Blood samples (150 µL) were withdrawn from the jugular vein with a fraction collector at 15, 30, 45, and 60 min and at 1.5, 2, 2.5, 3, 3.5 and 4 hr after drug administration. The blood samples were immediately centrifuged at 4200 × g for 10 min. The resulting plasma (50 µL) was added to 1 mL of ethyl acetate in a clean tube, vortexed for 5 min, and centrifuged at 5900 × g for 10 min. After centrifugation, the upper organic layer containing ethyl acetate was transferred to a new tube and evaporated to dryness under a nitrogen flow.
Chromatographic analysis was performed on a Model LC-20DAD HPLC system (Shimadzu, Tokyo, Japan) equipped with a Model SPD-M20A wavelength UV detector, a SIL-20AC autosampler, and an LC Solution data processing system. A […] C[18] column (50 × 2.1 mm, particle size 1.7 μm, Eclipse XDB; Agilent, Palo Alto, CA, USA) was used for HPLC separation. The mobile phase consisted of potassium dihydrogen phosphate (10 mM, pH = 3) and acetonitrile (55:45, v/v). The flow rate was set at 0.2 mL/min, and the injection volume was 5 μL. […] A peak controlled spectrum recording was selected with a range of 190–300 nm.
Pharmacokinetic parameters, including the area under the concentration vs. time curve (AUC), terminal elimination phase t1/2, Cmax, MRT, total plasma clearance and Vss, were calculated using the PK calculation software WinNonlin Standard Edition, version 1.1 (Scientific Consulting, Apex, NC, USA) using a compartmental method.

[5] = parameters: method as in earlier work; conditions: cited from earlier work
[6] = cited from earlier work
[7] = Organ distribution of sorafenib in rats; assay type: in vivo, Sprague-Dawley rats; conditions: for concentration at 6 h: Sprague-Dawley, rat, po, 40 mg/kg
Experimental: The brain, liver, heart, spleen, lung and kidney were collected and weighed. These collected samples were stored at −20 °C until analysis.
Thawed organ samples were homogenized in 50% aqueous acetonitrile (sample weight:volume ratio, 1:5), and the homogenate was then centrifuged at 13000 × g for 10 min at 4 °C. The supernatant was collected, placed in brown Eppendorf tubes, and stored at −20 °C until analysis. In brief, each organ sample (50 μL) was combined with 150 μL of IS solution (diethylstilbestrol) for protein precipitation. Finally, 20 μL of filtrate was injected into the HPLC system for analysis.

[8] = sorafenib + SBRT (fraction size ≥ 5 Gy), n = 18
[9] = sorafenib + conventional RT (fraction size <5 Gy), n = 25
[10] = oral, CsA 20 mg/kg i.p. + RT2Gy, sorafenib 40 mg/kg 1 hr later
[11] = oral, CsA 20 mg/kg i.p. + RT2Gy, sorafenib 40 mg/kg 24 hr later
[12] = oral, CsA 20 mg/kg i.p. + RT9Gy, sorafenib 40 mg/kg 1 hr later
[13] = oral, CsA 20 mg/kg i.p. + RT9Gy, sorafenib 40 mg/kg 24 hr later
[14] = oral, CsA 20 mg/kg i.p. + sorafenib 40 mg/kg
[15] = po, RT2Gy, sorafenib 40 mg/kg 1 hr later
[16] = po, RT2Gy, sorafenib 40 mg/kg 24 hr later
[17] = po, RT9Gy, sorafenib 40 mg/kg 1 hr later
[18] = po, RT9Gy, sorafenib 40 mg/kg 24 hr later
[19] = po, sorafenib 40 mg/kg p.o. only (sham RT), rats

Cmax [4, 10]: 1720 ± 960 ng/mL
Tmax [4, 10]: 3.3 h
Cmax [4, 11]: 7710 ± 3410 ng/mL
Tmax [4, 11]: 3.75 h
Cmax [4, 12]: 3740 ± 2170 ng/mL
Tmax [4, 12]: 3.33 h
Cmax [4, 13]: 5430 ± 3220 ng/mL
Tmax [4, 13]: 3.92 h
Cmax [4, 14]: 4690 ± 2310 ng/mL
Tmax [4, 14]: 4 h
Cmax [4, 15]: 10100 ± 5930 ng/mL
Tmax [4, 15]: 2.92 h
Cmax [4, 16]: 1890 ± 1080 ng/mL
Tmax [4, 16]: 3.4 h
AUC(0-t) ([4]; po, RT2Gy, sorafenib 40 mg/kg p.o. 1 hr later): 27800 ng·h/mL
AUC(0-t) ([4]; po, RT2Gy, sorafenib 40 mg/kg p.o. 24 hr later): 4950 ng·h/mL
Cmax [4, 17]: 12300 ± 6300 ng/mL
Tmax [4, 17]: 3.25 h
Cmax [4, 18]: 8690 ± 2730 ng/mL
Tmax [4, 18]: 3.08 h
AUC(0-t) ([4]; po, RT9Gy, sorafenib 40 mg/kg p.o. 1 hr later): 31500 ng·h/mL
AUC(0-t) ([4]; po, RT9Gy, sorafenib 40 mg/kg p.o. 24 hr later): 24300 ng·h/mL
AUC(0-t) ([4]; po, CsA 20 mg/kg i.p. + RT2Gy, sorafenib 40 mg/kg p.o. 1 hr later): 4630 ng·h/mL
AUC(0-t) ([4]; po, CsA 20 mg/kg i.p. + RT2Gy, sorafenib 40 mg/kg p.o. 24 hr later): 18600 ng·h/mL
AUC(0-t) ([4]; po, CsA 20 mg/kg i.p. + RT9Gy, sorafenib 40 mg/kg p.o. 1 hr later): 10100 ng·h/mL
AUC(0-t) ([4]; po, CsA 20 mg/kg i.p. + RT9Gy, sorafenib 40 mg/kg p.o. 24 hr later): 12900 ng·h/mL
AUC(0-t) ([4]; po, CsA 20 mg/kg i.p. + sorafenib 40 mg/kg p.o.): 13100 ng·h/mL
AUC(0-t) [4, 19]: 12000 ng·h/mL
Cmax [4, 19]: 4390 ± 2280 ng/mL
Tmax [4, 19]: 3.75 h
Increase in concentration of sorafenib ([4]; both concurrent and sequential RT9Gy regimens compared with sorafenib alone): more than 2 fold
Organ distribution vs sham group ([7]; RT2Gy and RT9Gy under the sequential regimen): did not differ significantly
Level of sorafenib in organs vs sham group ([7]; RT9Gy concurrent with sorafenib, all organs except the brain): significantly decreased
concentration at 6 h ([7]; brain): 140 ± 150 ng/g
concentration at 6 h ([7]; heart): 1200 ± 360 ng/g
concentration at 6 h ([7]; kidney): 1930 ± 750 ng/g
concentration at 6 h ([7]; liver): 4430 ± 1560 ng/g
concentration at 6 h ([7]; lung): 3200 ± 1000 ng/g
concentration at 6 h ([7]; spleen): 1420 ± 530 ng/g
Structure (SMILES): CNC(=O)c1cc(Oc2ccc(NC(=O)Nc3ccc(Cl)c(C(F)(F)F)c3)cc2)ccn1 [sorafenib, Sorafenib]
Binding to P-gp [1]: moderate affinity
P-gp substrate affinity [1]: moderate-affinity
Complete or partial response rate ([2]; HCC patients, combination of sorafenib and RT): 55%
Reduction of HCC tumor volume ([2]; case report, sorafenib + RT combination regimen): 39%
No response (recanalization) [3, 8]: 1/18 (5.6%)
Partial recanalization [3, 8]: 12/18 (66.7%)
Increase in complete recanalization, SBRT vs conventional RT ([3]; sorafenib + SBRT compared to sorafenib + conventional RT): 3 fold
No response (recanalization) [3, 9]: 10/25 (40.0%)
Partial recanalization [3, 9]: 13/25 (52.0%)
Permeability across the gastrointestinal (GI) epithelium [5]: high
Reduction of AUC ([6]; average, concomitant administration of the CYP3A4 inducer rifampicin): 37%
Orally administered dose recovered as unchanged drug ([6]; by biliary excretion or lack of absorption): Approximately 50%
